# Experimental data: patent US8759522B2, “Inhibitors of protein tyrosine kinase activity” (Methylgene Inc., priority 2008, dated 2014)
# Test system: CNV progression
# Experiment: In vivo choroidal neovascularization (CNV) model
# Design: species or system Brown-Norway rats
# Conditions: 240 h; rat laser-induced CNV, 30 nmol/eye injection on Day 3, CNV area on Day 10 vs vehicle-treated group
# Source text: In vivo Choroidal Neovascularization (CNV) Model
# This test measures the capacity of compounds to inhibit CNV progression. CNV is the main cause of severe vision loss in patients suffering from age-related macular degeneration (AMD).
# Male Brown-Norway rats (Japan Clea Co., Ltd.) were used in these studies.
# Rats were anesthetized by intraperitoneal injection of pentobarbital, and the right pupil was dilated with 0.5% tropicamide and 0.5% phenylephrine hydrochloride. The right eye received 6 laser burns between retinal vessels using a slit lamp delivery system of Green laser Photocoagulator (Nidex Inc., Japan), and microscope slide glass with Healon™ (AMO Inc) used as a contact lens. The laser power was 100 or 200 mW for 0.1 second and spot diameter was 100 μm. At the time of laser burn, bubble production was observed, which is an indication of rupture of Bruch's membrane which is important for CNV generation.
# Rats were divided into the groups based on their body weight using SAS software (SAS institute Japan, R8.1) after laser irradiation (Day 0). After animals were anesthetized, and the right pupil dilated (as above mentioned), the right eye of the animal received the compound or vehicle by an injection (10 μL/eye) at doses of 30 nmol/eye on Day 3. The compounds were dissolved or suspended in CBS, PBS, or other adequate vehicles before injection.
# On Day 10, the animals were anesthetized with ether, and high molecular weight fluorescein isothiocyanate (FITC)-dextran (SIGMA, 2×10^6 MW) was injected via a tail vein (20 mg/rat). About 30 min after FITC-dextran injection, animals were euthanized by ether or carbon dioxide, and the eyes were removed and fixed with 10% formaline neutral buffer solution. After over 1 hour of fixation, RPE-choroid-sclera flat mounts were obtained by removing cornea, lens and retina from the eyeballs. The flat mounts were mounted in 50% glycerol on a microscope slide, and the portion burned by laser was photographed using a fluorescence microscope (Nikon Corporation, excitation filter: 465-495 nm, absorption filter: 515-555 nm). The CNV area was obtained by measurement of hyper-fluorescence area observed on the photograph using Scion image.
# The average CNV area of 6 burns was used as an individual value of CNV area, and the average CNV area of compound treated group was compared with that of the vehicle-treated group.
row,Structure (SMILES),inhibition in vivo at 30 nmol/eye [%]
1,"N[C@@H](CCCCNCc1ccc(-c2cc3nccc(Oc4ccc(NC(=O)NC5CC5)cc4F)c3s2)nc1)C(=O)O [Compound 324, (S)-2-amino-6-((6-(7-(4-(3-cyclopropylureido)-2-fluorophenoxy)thieno[3,2-b]pyridin-2-yl)pyridin-3-yl)methylamino)hexanoic acid]",40 to 60
2,"COCCN(Cc1cnc(-c2cc3nccc(Oc4ccc(NC(=O)NC5CC5)cc4F)c3s2)n1C)S(C)(=O)=O [Compound 349, N-((2-(7-(4-(3-Cyclopropylureido)-2-fluorophenoxy)thieno[3,2-b]pyridin-2-yl)-1-methyl-1H-imidazol-5-yl)methyl)-N-(2-methoxyethyl)methanesulfonamide]",≥ 60
3,"COCCNCc1ccc(-c2cc3nccc(Oc4ccc(NC(=O)Nc5nc(C)cs5)cc4F)c3s2)nc1 [Compound 397, 1-(3-fluoro-4-(2-(5-((2-methoxyethylamino)methyl)pyridin-2-yl)thieno[3,2-b]pyridin-7-yloxy)phenyl)-3-(4-methylthiazol-2-yl)urea]",40 to 60
4,"COCCOCCNCc1ccc(-c2cc3nccc(Oc4ccc(NC(=O)NC5CC5)cc4F)c3s2)nc1 [Compound 331, 1-Cyclopropyl-3-(3-fluoro-4-(2-(5-((2-(2-methoxyethoxy)ethylamino)methyl)pyridin-2-yl)thieno[3,2-b]pyridin-7-yloxy)phenyl)urea]",40 to 60
5,"COCCNCc1cnc(-c2cc3nccc(Oc4ccc(NC(=O)NC(C)C)cc4F)c3s2)n1C [Compound 315, 1-(3-Fluoro-4-(2-(5-((2-methoxyethylamino)methyl)-1-methyl-1H-imidazol-2-yl)thieno[3,2-b]pyridin-7-yloxy)phenyl)-3-isopropylurea]",≥ 60
6,"COCCNCc1cccc(-c2cc3nccc(Oc4ccc(NC(=O)Nc5cccc(P(C)(C)=O)c5)cc4F)c3s2)n1 [Compound 387, 1-(3-(dimethylphosphoryl)phenyl)-3-(3-fluoro-4-(2-(6-((2-methoxyethylamino)methyl)pyridin-2-yl)thieno[3,2-b]pyridin-7-yloxy)phenyl)urea]",40 to 60
7,"COCCNCc1ccc(-c2cc3nccc(Oc4ccc(NC(=O)Nc5cccc(S(N)(=O)=O)c5)cc4F)c3s2)nc1 [Compound 403, 3-(3-(3-fluoro-4-(2-(5-((2-methoxyethylamino)methyl)pyridin-2-yl)thieno[3,2-b]pyridin-7-yloxy)phenyl)ureido)benzenesulfonamide]",≥ 60
8,"COCCNCc1cnc(-c2cc3nccc(Oc4ccc(NC(=O)Nc5ccc(F)cc5F)cc4F)c3s2)n1C [Compound 351, 1-(2,4-difluorophenyl)-3-(3-fluoro-4-(2-(5-((2-methoxyethylamino)methyl)-1-methyl-1H-imidazol-2-yl)thieno[3,2-b]pyridin-7-yloxy)phenyl)urea]",40 to 60
9,"COCCN(Cc1ccc(-c2cc3nccc(Oc4ccc(NC(=O)Nc5cccc(S(C)(=O)=O)c5)cc4F)c3s2)nc1)C(C)=O [Compound 413, N-((6-(7-(2-fluoro-4-(3-(3-(methylsulfonyl)phenyl)ureido)phenoxy)thieno[3,2-b]pyridin-2-yl)pyridin-3-yl)methyl)-N-(2-methoxyethyl)acetamide]",≥ 60
10,"COCCOCCNCc1ccc(-c2cc3nccc(Oc4ccc(NC(=O)Nc5cc(C)on5)cc4F)c3s2)nc1 [Compound 392, 1-(3-fluoro-4-(2-(5-((2-(2-methoxyethoxy)ethylamino)methyl)pyridin-2-yl)thieno[3,2-b]pyridin-7-yloxy)phenyl)-3-(5-methylisoxazol-3-yl)urea]",40 to 60
11,"COCCNCc1ccc(-c2cc3nccc(Oc4ccc(NC(=O)NC5CCC5)cc4F)c3s2)nc1 [Compound 414, 1-cyclobutyl-3-(3-fluoro-4-(2-(5-((2-methoxyethylamino)methyl)pyridin-2-yl)thieno[3,2-b]pyridin-7-yloxy)phenyl)urea]",40 to 60
12,"O=C(Nc1ccc(Oc2ccnc3cc(-c4ccc(CN5CCCC5=O)cn4)sc23)c(F)c1)NC1CC1 [Compound 333, 1-cyclopropyl-3-(3-fluoro-4-(2-(5-((2-oxopyrrolidin-1-yl)methyl)pyridin-2-yl)thieno[3,2-b]pyridin-7-yloxy)phenyl)urea]",≥ 60
13,"COC[C@H](C)N(Cc1ccc(-c2cc3nccc(Oc4ccc(NC(=O)NC5CC5)cc4F)c3s2)nc1)C(C)=O [Compound 335, (S)—N-((6-(7-(4-(3-cyclopropylureido)-2-fluorophenoxy)thieno[3,2-b]pyridin-2-yl)pyridin-3-yl)methyl)-N-(1-methoxypropan-2-yl)acetamide]",40 to 60
14,"COCCN(Cc1ccc(-c2cc3nccc(Oc4ccc(NC(=O)Nc5cccc(C(N)=O)c5)cc4F)c3s2)nc1)C(=O)OC [Compound 419, methyl (6-(7-(4-(3-(3-carbamoylphenyl)ureido)-2-fluorophenoxy)thieno[3,2-b]pyridin-2-yl)pyridin-3-yl)methyl(2-methoxyethyl)carbamate]",40 to 60
15,"COCCOCCOCCNCc1ccc(-c2cc3nccc(Oc4ccc(NC(=O)Nc5cccc(P(C)(C)=O)c5)cc4F)c3s2)nc1 [Compound 390, 1-(4-(2-(5-5,8,11-trioxa-2-azadodecylpyridin-2-yl)thieno[3,2-b]pyridin-7-yloxy)-3-fluorophenyl)-3-(3-(dimethylphosphoryl)phenyl)urea]",40 to 60
16,"COCCN(Cc1ccc(-c2cc3nccc(Oc4ccc(NC(=O)NC5CC5)cc4F)c3s2)nc1)C(=O)[C@H](N)C(C)C [Compound 341, (R)-2-amino-N-((6-(7-(4-(3-cyclopropylureido)-2-fluorophenoxy)thieno[3,2-b]pyridin-2-yl)pyridin-3-yl)methyl)-N-(2-methoxyethyl)-3-methylbutanamide]",≥ 60
17,"COCCOCCOCCOCCNCc1ccc(-c2cc3nccc(Oc4ccc(NC(=O)NC5CC5)cc4F)c3s2)nc1 [Compound 323, 1-(4-(2-(5-5,8,11,14-Tetraoxa-2-azapentadecylpyridin-2-yl)thieno[3,2-b]pyridin-7-yloxy)-3-fluorophenyl)-3-cyclopropylurea]",≥ 60

# Same assay, conditions: rat laser-induced CNV, 30 nmol/eye injection on Day 3, CNV area on Day 10 vs vehicle-treated group
row,Structure (SMILES),Inhibition of CNV progression
1,COCCNCc1cnc(-c2cc3nccc(Oc4ccc(NC(=O)NC5CC5)cc4F)c3s2)n1C [Compound 348],B (≧40% to <60% inhibition)
